Values after ≈ are worked out from the molar mass of the structure shown.
How the values were obtained:
[1] = tested on: Pimephales promelas; conditions: chronic/long-term; duration: 278 days; growth
[2] = tested on: Colinus virginianus
[3] = tested on: Canidae; conditions: chronic; duration: 52 weeks; oral; Dog Other; body weight
[4] = tested on: Anas platyrhynchos; conditions: short-term; oral; feed; mortality
[5] = tested on: Rattus norvegicus; conditions: for NOEC: chronic, M
[6] = tested on: Oryctolagus sp.; conditions: developmental; development
[7] = tested on: Folsomia candida; conditions: chronic/long-term; duration: 28 days
[8] = tested on: Daphnia magna; conditions: chronic/long-term; duration: 21 days; growth
[9] = tested on: Mus musculus; conditions: chronic; duration: 2 years; organ weight
[10] = tested on: Lepomis macrochirus; conditions: acute; duration: 96 hours; mortality
[11] = tested on: Tagia sp.
[12] = tested on: Apis mellifera; conditions: acute; duration: 48 hours; oral; unspecified; mortality
[13] = tested on: Bibionidae; conditions: chronic/long-term; duration: 28 days; seedling emergence
[14] = tested on: Aphidius rhopalosiphi; test: LR50; higher = less toxic; conditions: not reported; mortality

SMILES: O=[N+]([O-])c1cc(C(F)(F)F)c(Cl)c([N+](=O)[O-])c1Nc1ncc(C(F)(F)F)cc1Cl [Fluazinam]
- NOEC [1]: 0.0029 mg/L
- LD50 ([2]; acute, oral, mortality): 1780 mg/kg-day
- NOEC ([2]; reproduction developmental): 60.4 mg/kg-day
- NOAEL [3]: 1 mg/kg-day
- LC50 [4]: > 1230 mg/kg-day
- LD50 ([5]; acute, F, mortality): 4100 mg/kg-day
- NOEC [5]: 5 mg/kg-day
- NOEC ([5]; mortality): 100 mg/kg-day
- NOAEL [6]: 7 mg/kg-day
- NOEC [7]: < 1.57 mg/kg
- NOEC [8]: 0.0125 mg/L
- NOAEL [9]: 1.12 mg/kg-day
- LC50 [10]: 0.055 µg/mL (≈ 0.118 µM)
- LC50 ([11]; acute, duration: 14 days, mortality): > 1000 mg/kg
- NOEC ([11]; chronic/long-term, duration: 28 days): 0.35 mg/kg
- LD50 [12]: > 100 µg/piece
- NOEC [13]: 0.00625 mg/L
- LR50 [14]: > 200 g/ha

From EPA's ToxValDB 9.5 (doi:10.2903/j.efsa.2008.137r)
